We go through two compounds from paper PMC9098178, “SAR of Novel 3-Arylisoquinolinones: meta-Substitution on the Aryl Ring Dramatically Enhances Antiproliferative Activity through Binding to Microtubules” (Journal of Medicinal Chemistry, 2022).

The IC50 is the point on the concentration scale where inhibition reaches its midpoint.

The structures appear in SMILES notation. Like-named read-outs stand apart in the source and are kept apart here.

The subject of assay [1] is SNU423. Nature of the assay: SRB antiproliferative assay, SNU423. The settings on record: Homo sapiens. The assay is classed as cell-based, human. The protocol: (§1) In light of this substantial change in activity between the meta and para compounds, a more comprehensive analysis of the antiproliferative activity was performed for the meta-/para-3-arylisoquinolinone pairs 2 and 3, 4, and 5, as well as 6. A panel of breast (MDA-MB-231), liver (HepG2, SNU423), lung (A549), and colon (HCT116) cancer cell lines were treated with the five 3-arylisoquinolinone analogs for 96 h followed by the SRB assay. The dose–response curves (including those for MCF-7) are presented in Figure S22, and their relevant IC50 values are listed in Table 1. […] The differential activity between meta- and para-3-arylisoquinolinones was reproduced in the National Cancer Institute (NCI) one-dose screen using a panel of 59 cancer cell lines (Figure S23).
All cell lines used in the study were human-derived and purchased from ATCC (Manassas, USA). Breast adenocarcinoma MCF-7 and MDA-MB-231 cell lines were cultured in DMEM. Hepatocellular carcinoma HepG2 and SNU423 cell lines were grown in MEME combined with 1% (v/v) nonessential amino acids and RPMI supplemented with 2 mM glutamine, respectively. Lung adenocarcinoma A549 and colorectal carcinoma HCT116 cells were grown in RPMI (+2 mM glutamine). All previous media were further supplemented with 10% heat-inactivated fetal bovine serum. The immortalized, normal liver THLE-3 cells were grown in BEGM (Lonza, Cat# CC-3170) onto precoated vessels according to ATCC’s instructions. Human umbilical vein endothelial cells (HUVECs) were cultured in EGM-2 (Lonza, Cat# CC-3162). All of the cells were maintained at 37 °C and 5% CO2 in a humidified incubator.
Screening of the antiproliferative activity of 3-arylisoquinolinones was performed using the SRB assay as previously described.[56] Exponentially growing HepG2, SNU423, MDA-MB-231, MCF-7, A549, HCT116, THLE-3, and HUVECs were seeded in 96-well plates at densities of 3000, 2000, 1500, 2500, 1000, 1000, 4000, and 4000 cells/well, respectively. These densities were experimentally selected so that the DMSO-treated cells (control) were approximately 80–90% confluent at the assay’s endpoint, and their optical density (OD) values fell within the assay’s linear range. […] After treatment, cell monolayers were fixed with 10% (w/v) trichloroacetic acid for 1 h at 4 °C, washed, and dried. Then, the cells were exposed to 0.4% (w/v) SRB dye (prepared in 1% (v/v) acetic acid; Botium, Cat# 80100) for 15 min followed by several 1% acetic acid washing and then drying. Finally, the cellular protein-bound SRB was thoroughly dissolved in 10 mM Tris base, and the OD values were read at 510 nm using a plate reader (μQuant Microplate Spectrophotometer, Biotek, U.K.) coupled with Gen5 software (BioTek, U.K.). Compound-induced changes in cell growth were inferred from changes in OD values. Cell growth was calculated using the following formula: cell growth (%) = (ODtest/ODcontrol) × 100.

For assay [2], the system named is HepG2 cells. Nature of the assay: Clonogenic assay. The assay is classed as cell-based, human. The following applies: 14 days. The protocol:
HepG2 cells were treated with varying concentrations of 2–6 added once and kept for 14 days before counting colonies and calculating surviving fraction (Figure 2).
The ability of potential anticancer agents to prevent unlimited cell division and induce reproductive cell death was assessed using clonogenic assay as previously described.[57] In brief, HepG2 cells were seeded into six-well plates at a density of 1000 single cells/well and incubated for 10–12 h to adhere. The cells were then treated with DMSO (control) or a range of concentrations of 2–6 for 14 days. Afterward, the produced colonies were washed with phosphate-buffered saline (PBS), fixed with 70% ethanol for 20 min, and stained with 0.5% (w/v) methylene blue (prepared in 70% methanol). Following washing with water and drying, colonies (≥50 cells) were manually counted. The colony-forming efficiency (CFE) of cells was calculated by dividing the number of colonies formed by the number of cells seeded for each condition. The surviving fraction was determined by dividing the CFE of the treated cells by CFE of the control cells. A survival curve was generated by plotting the log of drug concentrations versus surviving fraction.

Assay [3] relates to panel of 59 cancer cell lines. Nature of the assay: NCI one-dose screen. The assay is classed as cell-based. The settings on record: 10 µM, 48 h, SRB. The protocol: as §1
Figure S23. NCI One-Dose Mean graphs for 3-arylisoquinolinones 4, 5 […]
In NCI one-dose screen, the 59 cell lines (classified into 9 groups) were exposed to 4, 5 and 7 at a single dose of 10 µM for 48 h followed by SRB assay. The one-dose data were reported as a mean graph of the growth percentage of treated cells, as relative to the cell number of both the no-drug control and the zero time (before adding the test agent). Values between 0 and 100 indicate growth inhibition, whereas values less than 0 indicate lethality. For instance, a value of 40 means 60% growth inhibition; 0, no growth throughout the experiment; -40, 40% lethality; and - 100, all cells are dead.1
A) One-dose mean graph for 3-arylisoquinolinone 4 (NSC number 795055)

Assay [4] has as its system HUVECs. Nature of the assay: Endothelial cell tube formation assay. The assay is classed as cell-based, human. The following applies: 16 h, Matrigel. The protocol: (§2) Moreover, networks of HUVEC-based tubes were exposed for 16 h to different concentrations of 4 and 5 to assess their potential tube disruptive effects (Figure 8B). […] The disruption was more pronounced at 1 and 2 μM of 4, as evidenced by a decrease in tube junctions and formation of short distorted tubes.
(§3) Matrigel (Corning, Cat# 356237) was gently added into 96-well plates at a volume of 70 μL/well and allowed to gel at 37 °C for 30 min. A mixture of HUVECs (25 × 10^3) and DMSO, 4 (0.5, 1, 2 μM), or 5 (25 μM) was then dispensed over the gels and incubated for 16 h. Next, the wells were filled with PBS and covered with a coverslip to diminish the meniscus effect, allowing proper examination of the endothelial tube networks under a light microscope (Optika XDS-3, Italy). Bright-field images of 4x magnification were captured and then processed using Fiji ImageJ software. For the assessment of endothelial tube disruption, HUVECs at a density of 25 × 10^3 cells/well were seeded onto Matrigel and incubated for 4 h to align into tubes. The cells were then treated with DMSO, 4, or 5 for 16 h prior to the microscopic examination as mentioned above.

In assay [5] the test system is HUVECs. Nature of the assay: Endothelial tube disruption assay. The assay is classed as cell-based, human. The following applies: 16 h treatment after 4 h tube formation; concentration-dependent, more pronounced at 1 and 2 μM of 4. As to the method: as §2, §3
[6] abbreviates: SNU-423, 96 h treatment, mean ± SEM, read-out: IC50 SNU423.

With `O=c1[nH]c(-c2cccc(F)c2)cc2cc(F)ccc12` [compound 4, 6-Fluoro-3-(3-fluorophenyl)isoquinolin-1(2H)-one], the IC50 in assay [1] (SNU-423, 24 h +drug/72 h –drug treatment, read-out: mean IC50 ± SEM, SNU423) was determined as 360 ± 10 nM; in assay [1] (setting [6]), 250 ± 30 nM. The colony formation result in assay [2] (0.5 or 1 μM) is “No colonies were apparent”. For the same compound, the “inhibition of growth in NCI one-dose screen” value in assay [3] was “far more potent in the inhibition of growth of many of the cell lines”. In addition, the “effect on capillary-like tube formation” value in assay [4] (2 μM) is recorded as “markedly suppressed tube formation”. In addition, the “disruption of preestablished capillary-like tubes” value in assay [5] was “able to disrupt the preestablished capillary-like tubes”.

As to `O=c1[nH]c(-c2ccc(F)cc2)cc2cc(F)ccc12` [compound 5, 6-Fluoro-3-(4-fluorophenyl)isoquinolin-1(2H)-one], the IC50 in assay [1] (setting [6]) is above 50000 nM. In assay [2] (concentrations as high as 20 μM), the surviving fraction is 0.5. For the same compound, the “inhibition of growth in NCI one-dose screen” value in assay [3] is on record as “less active”. Also, the “effect on capillary-like tube formation” value in assay [4] (25 μM) was “did not significantly affect the process of tube formation”. For the same compound, the “disruption of preestablished capillary-like tubes” value in assay [5] is on record as “not observed”.
